Experimental data from the supplement of paper PMC10627819.

Experiments:
S. pneumoniae D39V [1] = assay: fitness (endpoint OD595 vs no drug) (fraction); higher = more growth
Summary of the method: (§1)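 Fitness expresses the optical density reached at the stationary-phase transition as a fraction of the robust mean of no-drug control wells. It is capped at 1. Measurements were OD595 every 30 min for 14 h at 37 °C after inoculation of 384-well plates at OD595 0.01 (30 µl, or 55 µl for S. pneumoniae), minus the first reading.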

S. aureus DSM 20231 [2] = assay: as above
Summary of the method: as §1

S. aureus Newman [3] = assay: as above
Summary of the method: as §1

S. pneumoniae D39V [4] = assay: Bliss interaction score (quartile over a dose matrix) (fitness difference); higher = more antagonism (negative = synergy)
Summary of the method: (§2)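 The Bliss score subtracts expected fitness, the product of the single-drug fitness values, from observed fitness. Fitness is plate-normalised OD595 at entry into stationary phase, relative to the robust no-drug mean and capped at 1, with single-drug fitness inferred from combinations. Summaries are quartiles over technical, biological and donor/recipient replicates.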

S. aureus DSM 20231 [5] = assay: as above
Summary of the method: as §2

S. aureus Newman [6] = assay: as above
Summary of the method: as §2

B. subtilis 168 = assay: as above
Summary of the method: as §2
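For Bliss interaction score (quartile over a dose matrix) in this document: first quartile when negative (synergy) and third quartile when positive (antagonism).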

CC1(C)S[C@@H]2[C@H](NC(=O)[C@H](N)c3ccc(O)cc3)C(=O)N2[C@H]1C(=O)O [Amoxicillin] + CC1=C\[C@@H](O)CC(=O)Cc2nc(co2)C(=O)N2CCC=C2C(=O)O[C@H](C(C)C)[C@H](C)/C=C/C(=O)NC\C=C\1 [Virginiamycin M1]
one replicate
Details	fitness
S. aureus DSM 20231 [2], first compound 0.0625 µg/mL, partner 0.5 µg/mL	0.541
S. aureus DSM 20231 [2], first compound 0.0625 µg/mL, partner 1 µg/mL	0.699
S. aureus DSM 20231 [2], first compound 0.125 µg/mL, partner 0.5 µg/mL	0.444
S. aureus DSM 20231 [2], first compound 0.125 µg/mL, partner 1 µg/mL	0.497
S. aureus DSM 20231 [2], first compound 0.25 µg/mL, partner 0.5 µg/mL	0.0437
S. aureus DSM 20231 [2], first compound 0.25 µg/mL, partner 1 µg/mL	0.108
S. aureus DSM 20231 [2], first compound 0.5 µg/mL, partner 0.0625 µg/mL	0.0149
S. aureus DSM 20231 [2], first compound 0.5 µg/mL, partner 0.125 µg/mL	0.0318
S. aureus DSM 20231 [2], first compound 0.5 µg/mL, partner 0.25 µg/mL	0.0127
S. aureus Newman [3], first compound 0.125 µg/mL, partner 0.5 µg/mL	0.81
S. aureus Newman [3], first compound 0.125 µg/mL, partner 1 µg/mL	≥ 1
S. aureus Newman [3], first compound 0.125 µg/mL, partner 2 µg/mL	0.845
S. aureus Newman [3], first compound 0.25 µg/mL, partner 0.5 µg/mL	0.813
S. aureus Newman [3], first compound 0.25 µg/mL, partner 1 µg/mL	0.865
S. aureus Newman [3], first compound 0.25 µg/mL, partner 2 µg/mL	0.754
S. aureus Newman [3], first compound 0.5 µg/mL, partner 0.5 µg/mL	0.74
S. aureus Newman [3], first compound 0.5 µg/mL, partner 1 µg/mL	0.828
S. aureus Newman [3], first compound 0.5 µg/mL, partner 2 µg/mL	0.732
S. pneumoniae D39V [1], first compound 0.0008 µg/mL, partner 0.15 µg/mL	0.996
S. pneumoniae D39V [1], first compound 0.0008 µg/mL, partner 0.3 µg/mL	0.892
S. pneumoniae D39V [1], first compound 0.0015 µg/mL, partner 0.15 µg/mL	0.948
S. pneumoniae D39V [1], first compound 0.0015 µg/mL, partner 0.3 µg/mL	0.9
S. pneumoniae D39V [1], first compound 0.003 µg/mL, partner 0.15 µg/mL	0.951
S. pneumoniae D39V [1], first compound 0.003 µg/mL, partner 0.3 µg/mL	0.906
S. pneumoniae D39V [1], first compound 0.006 µg/mL, partner 0.5 µg/mL	0.447
S. pneumoniae D39V [1], first compound 0.006 µg/mL, partner 1 µg/mL	0.474
S. pneumoniae D39V [1], first compound 0.006 µg/mL, partner 2 µg/mL	0.46

Details	fitness
S. aureus DSM 20231 [2], first compound 0.0625 µg/mL, partner 0.0625 µg/mL	0.48
S. aureus DSM 20231 [2], first compound 0.0625 µg/mL, partner 0.125 µg/mL	0.488
S. aureus DSM 20231 [2], first compound 0.0625 µg/mL, partner 0.25 µg/mL	0.504
S. aureus DSM 20231 [2], first compound 0.125 µg/mL, partner 0.0625 µg/mL	0.329
S. aureus DSM 20231 [2], first compound 0.25 µg/mL, partner 0.125 µg/mL	0.0421
S. aureus DSM 20231 [2], first compound 0.25 µg/mL, partner 0.25 µg/mL	0.0398
S. aureus Newman [3], first compound 0.0625 µg/mL, partner 0.0625 µg/mL	0.935
S. aureus Newman [3], first compound 0.0625 µg/mL, partner 0.125 µg/mL	0.893
S. aureus Newman [3], first compound 0.0625 µg/mL, partner 0.25 µg/mL	0.906
S. aureus Newman [3], first compound 0.125 µg/mL, partner 0.0625 µg/mL	0.883
S. aureus Newman [3], first compound 0.125 µg/mL, partner 0.125 µg/mL	0.948
S. aureus Newman [3], first compound 0.125 µg/mL, partner 0.25 µg/mL	0.945
S. aureus Newman [3], first compound 0.25 µg/mL, partner 0.0625 µg/mL	0.867
S. aureus Newman [3], first compound 0.25 µg/mL, partner 0.125 µg/mL	0.921
S. aureus Newman [3], first compound 0.25 µg/mL, partner 0.25 µg/mL	0.886
S. pneumoniae D39V [1], first compound 0.0008 µg/mL, partner 0.5 µg/mL	0.988
S. pneumoniae D39V [1], first compound 0.0008 µg/mL, partner 1 µg/mL	≥ 1
S. pneumoniae D39V [1], first compound 0.0008 µg/mL, partner 2 µg/mL	0.937
S. pneumoniae D39V [1], first compound 0.0015 µg/mL, partner 0.5 µg/mL	0.978
S. pneumoniae D39V [1], first compound 0.0015 µg/mL, partner 1 µg/mL	0.965
S. pneumoniae D39V [1], first compound 0.0015 µg/mL, partner 2 µg/mL	0.95
S. pneumoniae D39V [1], first compound 0.003 µg/mL, partner 0.5 µg/mL	0.926
S. pneumoniae D39V [1], first compound 0.003 µg/mL, partner 1 µg/mL	0.956
S. pneumoniae D39V [1], first compound 0.003 µg/mL, partner 2 µg/mL	0.914

Details	Bliss interaction score
B. subtilis 168	-0.0567
S. aureus DSM 20231 [5]	-0.0553
S. aureus Newman [6]	0.0682
S. pneumoniae D39V [4]	-0.0459

CC1(C)S[C@@H]2[C@H](NC(=O)[C@H](N)c3ccc(O)cc3)C(=O)N2[C@H]1C(=O)O [Amoxicillin] + CCC[C@@H]1C[C@@H](C(=O)N[C@@H]([C@H]2O[C@H](SC)[C@H](O)[C@@H](O)[C@H]2O)[C@H](C)Cl)N(C)C1 [Clindamycin]
Details	fitness
S. aureus DSM 20231 [2], first compound 0.0625 µg/mL, partner 0.0625 µg/mL	0.132
S. aureus DSM 20231 [2], first compound 0.0625 µg/mL, partner 0.125 µg/mL	0.0693
S. aureus DSM 20231 [2], first compound 0.125 µg/mL, partner 0.0312 µg/mL	0.157
S. aureus DSM 20231 [2], first compound 0.125 µg/mL, partner 0.0625 µg/mL	0.0589
S. aureus DSM 20231 [2], first compound 0.125 µg/mL, partner 0.125 µg/mL	0.0684
S. aureus DSM 20231 [2], first compound 0.25 µg/mL, partner 0.0312 µg/mL	0.0508
S. aureus DSM 20231 [2], first compound 0.25 µg/mL, partner 0.0625 µg/mL	0.038
S. aureus DSM 20231 [2], first compound 0.25 µg/mL, partner 0.125 µg/mL	0.0621
S. aureus DSM 20231 [2], first compound 0.5 µg/mL, partner 0.0312 µg/mL	0.0205
S. aureus DSM 20231 [2], first compound 0.5 µg/mL, partner 0.0625 µg/mL	0.0091
S. aureus DSM 20231 [2], first compound 0.5 µg/mL, partner 0.125 µg/mL	0.0231
S. aureus Newman [3], first compound 0.0625 µg/mL, partner 0.0312 µg/mL	0.698
S. aureus Newman [3], first compound 0.125 µg/mL, partner 0.125 µg/mL	0.0978
S. pneumoniae D39V [1], first compound 0.0008 µg/mL, partner 0.0125 µg/mL	0.796
S. pneumoniae D39V [1], first compound 0.0008 µg/mL, partner 0.025 µg/mL	0.519
S. pneumoniae D39V [1], first compound 0.0008 µg/mL, partner 0.05 µg/mL	0.203
S. pneumoniae D39V [1], first compound 0.0015 µg/mL, partner 0.0125 µg/mL	0.77
S. pneumoniae D39V [1], first compound 0.0015 µg/mL, partner 0.015 µg/mL	0.92
S. pneumoniae D39V [1], first compound 0.0015 µg/mL, partner 0.025 µg/mL	0.488
S. pneumoniae D39V [1], first compound 0.0015 µg/mL, partner 0.03 µg/mL	0.757
S. pneumoniae D39V [1], first compound 0.0015 µg/mL, partner 0.05 µg/mL	0.186
S. pneumoniae D39V [1], first compound 0.0015 µg/mL, partner 0.06 µg/mL	0.539
S. pneumoniae D39V [1], first compound 0.003 µg/mL, partner 0.0125 µg/mL	0.77
S. pneumoniae D39V [1], first compound 0.003 µg/mL, partner 0.015 µg/mL	0.872
S. pneumoniae D39V [1], first compound 0.003 µg/mL, partner 0.025 µg/mL	0.482
S. pneumoniae D39V [1], first compound 0.003 µg/mL, partner 0.03 µg/mL	0.726
S. pneumoniae D39V [1], first compound 0.003 µg/mL, partner 0.05 µg/mL	0.186
S. pneumoniae D39V [1], first compound 0.003 µg/mL, partner 0.06 µg/mL	0.509

fitness, S. pneumoniae D39V [1], one replicate
Details	partner 0.015 µg/mL	partner 0.03 µg/mL	partner 0.06 µg/mL
first compound 0.0008 µg/mL	0.962	0.84	0.557
first compound 0.006 µg/mL	0.505	0.385	0.298

Details	Bliss interaction score
B. subtilis 168	-0.0391
S. aureus DSM 20231 [5]	0.0324
S. aureus Newman [6]	-0.0717
S. pneumoniae D39V [4]	0.151

CC1(C)S[C@@H]2[C@H](NC(=O)[C@H](N)c3ccc(O)cc3)C(=O)N2[C@H]1C(=O)O [Amoxicillin] + CCN(CC)CCOC(=O)c1ccc(N)cc1 [Procaine]
fitness
Details	partner 85.5 µg/mL	partner 171 µg/mL	partner 342 µg/mL
S. aureus DSM 20231 [2], first compound 0.0625 µg/mL	0.455	0.523	0.523
S. aureus DSM 20231 [2], first compound 0.125 µg/mL	0.423	0.478	0.495
S. aureus DSM 20231 [2], first compound 0.25 µg/mL	0.0255	–	–
S. aureus Newman [3], first compound 0.0625 µg/mL	0.862	0.875	0.861
S. aureus Newman [3], first compound 0.125 µg/mL	–	0.847	0.861
S. aureus Newman [3], first compound 0.25 µg/mL	–	0.841	0.811
S. pneumoniae D39V [1], first compound 0.0008 µg/mL	1	0.989	0.942
S. pneumoniae D39V [1], first compound 0.0015 µg/mL	0.985	0.971	0.987
S. pneumoniae D39V [1], first compound 0.003 µg/mL	0.918	0.93	0.992

fitness, one replicate
Details	partner 85.5 µg/mL	partner 171 µg/mL	partner 342 µg/mL
S. aureus DSM 20231 [2], first compound 0.5 µg/mL	0.0288	0.0239	0.0199
S. pneumoniae D39V [1], first compound 0.006 µg/mL	0.536	0.524	0.519

Details	Bliss interaction score
B. subtilis 168	-0.036
S. aureus DSM 20231 [5]	-0.0798
S. aureus Newman [6]	-0.0462
S. pneumoniae D39V [4]	0.0262
